Data reported in patent US20130331345A1, “PUERARIN HYDRATES, PREPARATION METHODS AND USES THEREOF” (priority 2010, published 2013).

Key:
[1] = Accelerated stability test (40° C., RH75%), sealed in penicillin bottles; assay type: physicochemical; details: accelerated, 40° C.
Description: (§1) The sample of the puerarin hydrate above (prepared by method of Example 1) and anhydrous puerarin (anhydrous puerarin was prepared by: drying the hydrate as prepared in Example 1 at 90-105° C. in the presence of phosphorus pentoxide under vacuum for 24-72 hours or more to obtain an anhydrous puerarin, and the water content of anhydrous puerarin was usually lower than 1.0% as measured by Karl Fisher method) were sealed in penicillin bottles to perform accelerated stability test (chromatography conditions: chromatography column: C18 (150 mm×4.6 mm, 5 μm); mobile phase: 0.1% citric acid solution-methanol (75:25); flow rate: 1 ml/min; temperature: room temperature; detection wavelength: 250 nm). […] Hygroscopicity test was performed according to the Pharmacopoeia of the People's Republic of China: about 5 g of anhydrous puerarin and the crystalline hydrate of the present invention were taken, placed in dry watch glasses with constant weight, weighed precisely. Samples were taken separately at 0 h and 48 h of the test at 25° C. and relative humidity of 75%, and hygroscopicity weight gain percentages were calculated.

[2] = Long-term stability test; assay type: physicochemical
[3] = Hygroscopicity test according to the Pharmacopoeia of the People's Republic of China; assay type: physicochemical; details: 48 h, 25° C., relative humidity 75%; monohydrate
Description: as §1

[4] = system: arrhythmia induced by aconitine; experiment: Effects on arrhythmia caused by aconitine in rats; assay type: in vivo, SD rats; details: 200 mg · kg^−1 intravenous, n = 10, p < 0.05 vs physiological saline, monohydrate
Description: 20 SD rats, male and female, body weight 185±19 g, randomly divided into 2 groups, separately administrated via intravenous injection with physiological saline, puerarin monohydrate (prepared by method of Example 1) (which was added with cosolvent to form an injectable solution) 200 mg·kg^−1. The rats were anesthetized with 3% pentobarbital sodium 40 mg·kg^−1, and fixed in supine position on operating table. The rats were subjected to injection via sublingual vein, after 6 min, subjected to intravenous injection of 0.0025% aconitine at a constant rate, 2 μg·min^−1 (0.08 ml·min^−1), the time of ventricular premature beat (VP), ventricular tachycardia (VT), ventricular fibrillation (VF) and cardiac arrest (CA) were recorded, and corresponding dosages were calculated.

[5] = system: cerebral ischemia-reperfusion; experiment: Effects on cerebral ischemia-reperfusion in rats (NO, NOS, MDA, SOD in brain tissue); assay type: in vivo, Wistar male rats; details: rats after ischemia-reperfusion, 400 mg/kg intragastric twice per day, monohydrate
Description: 36 Wistar male rats, body weight 250-300 g, were randomly divided into 3 groups: sham operation group, ischemia-reperfusion group, and the present invention drug group, 12 rats per group. The rats of the present invention drug group were intragastrically administered with physiological saline suspension of puerarin monohydrate (prepared by method of Example 1) in a dose of 400 mg/kg, volume of 2 ml, twice per day, for consecutive 7 days, and cerebral ischemia operation was performed 60 min after the last administration; the rats of sham operation group and the ischemia-reperfusion group were administered separately with isometric physiological saline 2 ml.
The rats were anesthetized with 10% chloral hydrate (3.5 ml/kg) by intraperitoneal injection, fixed at supine position, and molded by a modified Zea Longa suture method referring to document (Journal of Shanghai Jiaotong University (medical Science), 2007, 27(10): 1218-1222); suture was inserted only 10 mm in sham operation group, and the other steps were the same as the model groups. […] After successful modeling, the rats of the present invention drug group were administered twice per day in the same dose as above, while those of the sham operation group and the ischemia-reperfusion group were administered isometric physiological saline 2 ml. Sutures were drawn out 2 hours after modeling, the rats were executed 24 hours after reperfusion, and their brain weights were measured rapidly. 10% brain tissue homogenates were prepared at low temperature with physiological saline, centrifuged under 3000 r/min for 10 min at low temperature, the deposit was discarded, and the supernatant was taken and measured with commercial kits of SOD, MDA, NO, NOS according to their specifications to determine contents or activities of SOD, MDA, NO, NOS.

[6] = system: chronic ocular hypertension; experiment: Effects on chronic ocular hypertension of rabbits (dexamethasone model); assay type: in vivo; details: within 24 hours, puerarin hydrate 1% (W/V), betaxolol 0.5% (W/V), monohydrate
Description: Chronic Ocular Hypertension Models: 32 rabbits, half male and half female, were subjected to sub-conjunctive injection with 0.5 mg of dexamethasone under corneal limbus, once every other day, for consecutive 3 weeks, to obtain chronic ocular hypertension models, then randomly divided into physiological saline group, betaxolol group [0.5% (W/V)], puerarin hydrate group [1% (W/V)]. The maximum decrease of intraocular pressure was measured within 24 hours.

[7] = listed as The present invention drug
[8] = listed as the present invention drug

## O=c1c(-c2ccc(O)cc2)coc2c([C@@H]3O[C@H](CO)[C@@H](O)[C@H](O)[C@H]3O)c(O)ccc12 [Sample 1, puerarin monohydrate]
[1]; sampling time 0 month
  Marked content (%): 99.5%
  Property: off-white powder
  Related substance (%): <2%
[1]; sampling time 1 month
  Marked content (%): 99.3%
  Property: off-white powder
  Related substance (%): <2%
[1]; sampling time 2 month
  Marked content (%): 99.6%
  Property: off-white powder
  Related substance (%): <2%
[1]; sampling time 3 month
  Marked content (%): 99.4%
  Property: off-white powder
  Related substance (%): <2%
[1]; sampling time 6 month
  Marked content (%): 99.3%
  Property: off-white powder
  Related substance (%): <2%
[2]; sampling time 0 month
  Marked content (%): 99.5%
  Property: off-white powder
  Related substance (%): <2%
[2]; sampling time 3 month
  Marked content (%): 99.6%
  Property: off-white powder
  Related substance (%): <2%
[2]; sampling time 6 month
  Marked content (%): 99.5%
  Property: off-white powder
  Related substance (%): <2%
[2]; sampling time 9 month
  Marked content (%): 99.4%
  Property: off-white powder
  Related substance (%): <2%
[2]; sampling time 12 month
  Marked content (%): 99.4%
  Property: off-white powder
  Related substance (%): <2%
[3]
  In comparison with 0 h, weight gain, %: 0.12%
[4]; listed as PW
  Dose of aconitine causing cardiac arrest (CA): 0.0951 ± 0.0086 mg/kg
  Dose of aconitine causing ventricular fibrillation (VF): 0.0635 ± 0.0077 mg/kg
  Dose of aconitine causing ventricular premature beat (VP): 0.0331 ± 0.0073 mg/kg
  Dose of aconitine causing ventricular tachycardia (VT): 0.0449 ± 0.0072 mg/kg
[4]
  Dose of aconitine causing cardiac arrest (CA): significantly increased
  Dose of aconitine causing ventricular fibrillation (VF): significantly increased
  Dose of aconitine causing ventricular premature beat (VP): significantly increased
  Dose of aconitine causing ventricular tachycardia (VT): significantly increased
[5]; [7]
  MDA in brain tissue: 2.54 ± 0.57 nmol/mL
  NO in brain tissue: 26 ± 6.13 µmol/L
  NOS in brain tissue: 23 ± 5.22 U/ml
  SOD in brain tissue: 243 ± 19.66 U/ml
[5]; [8]
  MDA in brain tissue: significantly decreased
  NO in brain tissue: significantly decreased
  NOS in brain tissue: decreased
  SOD in brain tissue: increased significantly
[6]
  Maximum decrease of intraocular pressure (mmHg): 2.6 mmHg
